# Data reported in the NIST ThermoML archive (doi:10.1016/j.tca.2012.03.001).
# Numbers after ± are expanded uncertainties.
# Legend:
# [1] = xn = mol fraction of the nth substance listed; details: 101 kPa, Liquid
# [2] = Liquid; for viscosity: 101 kPa; for mass density: 101.33 kPa, Pycnometric method
smiles,measurement,setting,value
CCOCCO [2-ethoxyethan-1-ol] + NC=O,viscosity,"[1]; 303.15 K, x2 = 0",1.654 ± 0.025 mPa·s
same,viscosity,"[1]; 303.15 K, x2 = 0.0975",1.996 ± 0.03 mPa·s
same,viscosity,"[1]; 303.15 K, x2 = 0.2009",2.306 ± 0.035 mPa·s
same,viscosity,"[1]; 303.15 K, x2 = 0.2984",2.58 ± 0.038 mPa·s
same,viscosity,"[1]; 303.15 K, x2 = 0.4047",2.873 ± 0.043 mPa·s
same,viscosity,"[1]; 303.15 K, x2 = 0.5054",3.162 ± 0.047 mPa·s
same,viscosity,"[1]; 303.15 K, x2 = 0.6055",3.409 ± 0.051 mPa·s
same,viscosity,"[1]; 303.15 K, x2 = 0.7092",3.509 ± 0.052 mPa·s
same,viscosity,"[1]; 303.15 K, x2 = 0.8063",3.495 ± 0.052 mPa·s
same,viscosity,"[1]; 303.15 K, x2 = 0.9074",3.306 ± 0.05 mPa·s
same,viscosity,"[1]; 308.15 K, x2 = 0",1.482 ± 0.023 mPa·s
same,viscosity,"[1]; 308.15 K, x2 = 0.0975",1.79 ± 0.027 mPa·s
same,viscosity,"[1]; 308.15 K, x2 = 0.2009",2.017 ± 0.03 mPa·s
same,viscosity,"[1]; 308.15 K, x2 = 0.2984",2.24 ± 0.034 mPa·s
same,viscosity,"[1]; 308.15 K, x2 = 0.4047",2.49 ± 0.037 mPa·s
same,viscosity,"[1]; 308.15 K, x2 = 0.5054",2.735 ± 0.041 mPa·s
same,viscosity,"[1]; 308.15 K, x2 = 0.6055",2.968 ± 0.044 mPa·s
same,viscosity,"[1]; 308.15 K, x2 = 0.7092",3.043 ± 0.046 mPa·s
same,viscosity,"[1]; 308.15 K, x2 = 0.8063",3.007 ± 0.045 mPa·s
same,viscosity,"[1]; 308.15 K, x2 = 0.9074",2.867 ± 0.044 mPa·s
same,viscosity,"[1]; 313.15 K, x2 = 0",1.306 ± 0.02 mPa·s
same,viscosity,"[1]; 313.15 K, x2 = 0.0975",1.564 ± 0.024 mPa·s
same,viscosity,"[1]; 313.15 K, x2 = 0.2009",1.786 ± 0.027 mPa·s
same,viscosity,"[1]; 313.15 K, x2 = 0.2984",1.986 ± 0.03 mPa·s
same,viscosity,"[1]; 313.15 K, x2 = 0.4047",2.221 ± 0.034 mPa·s
same,viscosity,"[1]; 313.15 K, x2 = 0.5054",2.466 ± 0.037 mPa·s
same,viscosity,"[1]; 313.15 K, x2 = 0.6055",2.659 ± 0.04 mPa·s
same,viscosity,"[1]; 313.15 K, x2 = 0.7092",2.718 ± 0.041 mPa·s
same,viscosity,"[1]; 313.15 K, x2 = 0.8063",2.692 ± 0.041 mPa·s
same,viscosity,"[1]; 313.15 K, x2 = 0.9074",2.583 ± 0.04 mPa·s
same,viscosity,"[1]; 318.15 K, x2 = 0",1.231 ± 0.019 mPa·s
same,viscosity,"[1]; 318.15 K, x2 = 0.0975",1.437 ± 0.022 mPa·s
same,viscosity,"[1]; 318.15 K, x2 = 0.2009",1.599 ± 0.025 mPa·s
same,viscosity,"[1]; 318.15 K, x2 = 0.2984",1.751 ± 0.027 mPa·s
same,viscosity,"[1]; 318.15 K, x2 = 0.4047",1.957 ± 0.03 mPa·s
same,viscosity,"[1]; 318.15 K, x2 = 0.5054",2.154 ± 0.033 mPa·s
same,viscosity,"[1]; 318.15 K, x2 = 0.6055",2.298 ± 0.035 mPa·s
same,viscosity,"[1]; 318.15 K, x2 = 0.7092",2.363 ± 0.036 mPa·s
same,viscosity,"[1]; 318.15 K, x2 = 0.8063",2.353 ± 0.036 mPa·s
same,viscosity,"[1]; 318.15 K, x2 = 0.9074",2.202 ± 0.034 mPa·s
same,viscosity,"[1]; 323.15 K, x2 = 0",1.116 ± 0.018 mPa·s
same,viscosity,"[1]; 323.15 K, x2 = 0.0975",1.281 ± 0.02 mPa·s
same,viscosity,"[1]; 323.15 K, x2 = 0.2009",1.415 ± 0.022 mPa·s
same,viscosity,"[1]; 323.15 K, x2 = 0.2984",1.533 ± 0.024 mPa·s
same,viscosity,"[1]; 323.15 K, x2 = 0.4047",1.709 ± 0.026 mPa·s
same,viscosity,"[1]; 323.15 K, x2 = 0.5054",1.891 ± 0.029 mPa·s
same,viscosity,"[1]; 323.15 K, x2 = 0.6055",2.041 ± 0.031 mPa·s
same,viscosity,"[1]; 323.15 K, x2 = 0.7092",2.1 ± 0.032 mPa·s
same,viscosity,"[1]; 323.15 K, x2 = 0.8063",2.094 ± 0.032 mPa·s
same,viscosity,"[1]; 323.15 K, x2 = 0.9074",1.954 ± 0.03 mPa·s
COCCO [2-methoxyethan-1-ol] + NC=O,viscosity,"[1]; 303.15 K, x2 = 0",1.421 ± 0.022 mPa·s
same,viscosity,"[1]; 308.15 K, x2 = 0",1.249 ± 0.02 mPa·s
same,viscosity,"[1]; 313.15 K, x2 = 0",1.173 ± 0.019 mPa·s
same,viscosity,"[1]; 318.15 K, x2 = 0",1.079 ± 0.017 mPa·s
same,viscosity,"[1]; 323.15 K, x2 = 0",0.9347 ± 0.015 mPa·s
NC=O [formamide] + CCOCCO,viscosity,"[1]; 303.15 K, x1 = 1",2.877 ± 0.044 mPa·s
same,viscosity,"[1]; 308.15 K, x1 = 1",2.544 ± 0.039 mPa·s
same,viscosity,"[1]; 313.15 K, x1 = 1",2.356 ± 0.036 mPa·s
same,viscosity,"[1]; 318.15 K, x1 = 1",2.061 ± 0.032 mPa·s
same,viscosity,"[1]; 323.15 K, x1 = 1",1.835 ± 0.029 mPa·s
CCOCCO [2-ethoxyethan-1-ol],viscosity,[2]; 303.15 K,1.654 ± 0.025 mPa·s
same,mass density,[2]; 303.15 K,921.19 ± 0.76 kg/m3
same,viscosity,[2]; 308.15 K,1.482 ± 0.023 mPa·s
same,mass density,[2]; 308.15 K,916.43 ± 0.77 kg/m3
same,viscosity,[2]; 313.15 K,1.306 ± 0.02 mPa·s
same,mass density,[2]; 313.15 K,911.58 ± 0.72 kg/m3
same,viscosity,[2]; 318.15 K,1.231 ± 0.019 mPa·s
same,mass density,[2]; 318.15 K,907.76 ± 0.7 kg/m3
same,viscosity,[2]; 323.15 K,1.116 ± 0.018 mPa·s
same,mass density,[2]; 323.15 K,903.45 ± 0.73 kg/m3
